Measured values from patent US4740499A, “Method of enhancing the bioactivity of atrial peptides” (Monsanto Company, priority 1986, dated 1988).

Assays:
[1] = Plasma AP-III levels (radioimmunoassay) in rats, first test: constant AP-III infusion, varied thiorphan dose; assay type: in vivo, rat; conditions: for AP-III Plasma concn. / Increase of plasma AP-III levels over control levels: rat; for AP-III Plasma concn.: AP-III 833 ng/kg/min i.v. infusion; for Increase of plasma AP-III levels over control levels: AP-III 833 ng/kg/min
Protocol: Plasma levels of atriopeptin III (AP-III) were tested in rats in which the AP-III was infused intravenously both with and without contemporaneous administration of thiorphan.
Male Sprague-Dawley rats, 240-310 g, were used for all tests. The rats were housed in the test facilities for at least 6 days before they were used.
Cannulas were made of PE-10 (polyethylene) tubing inserted and glued into a piece of PE-50 tubing. Rats were anesthetized with pentobarbital (50 mg/kg i.p.) and had cannulas inserted into the left femoral vein and artery. Both were inserted four cm into the vessels and tied securely. They were then tunnelled under the skin and brought out between the rat's shoulder blades and then cut so that only 1-2 cm was externalized. Cannulas were glued in place using Superglue and filled with saline containing 100 units heparin/ml. Rats were allowed to wake up and then housed individually with food and water ad libitum.
Two days after surgery, the rats were weighed and put into restraining cages that allowed limited movement. […] Blood was collected from the femoral artery and replaced with saline containing 10 units heparin/ml. In most tests, 0.3 ml blood was taken, except that when basal AP-III levels were measured 0.4 ml blood was withdrawn. Blood was immediately centrifuged in a microcentrifuge for one minute and plasma was frozen in plastic tubes placed on dry ice. Samples were kept in a -80° C. freezer until they were analyzed.
Thiorphan was dissolved in a minimal amount of 0.1 N NaOH to produce the sodium salt. The solution was immediately neutralized using 0.5 N HCl and diluted to a final concentration with 0.9% saline.
After taking the second sample, thiorphan was given as a bolus injection into the femoral artery and the line was flushed with 0.2 ml saline. The doses of thiorphan were 1,3,10 and 30 mg/kg; one set of rats received only a saline bolus as a control. Blood was taken 10,20,30 and 60 minutes after the injection of thiorphan. AP-III was infused during the entire experiment for a total of 90 minutes.
Plasma AP-III levels were analyzed by radioimmunoassay using a second antibody to separate free and bound AP-III. The label was ^125 I-AP-III that was purified by HPLC after iodination. Conditions were set so that 35-40% of the total counts were precipitated. The incubation medium contained sodium phosphate, pH 7.4, 0.25% bovine serum albumin (BSA), 0.5% sodium azide and 3% PEG-8000 (polyethylene glycol). The primary antibody was from a guinea pig immunized against AP-III. The incubations were done overnight at 6° C. The next day, 2 ml of 0.125% BSA was added to each tube and then they were centrifuged for 45 min at 3000 rpm. They were decanted and the radioactivity was counted in a Micromedic gamma counter. The standard curve contained 10 to 600 pg AP-III/tube. Only the linear portion of the curve was used for quantification. Plasma samples were diluted so that the AP-III concentrations were in the range of the standard curve.

[2] = system: rabbit kidney brush border membranes (RBBM); assay: physchem; assay type: biochemical; conditions: 20 μg RBBM, 100 nM inhibitor, 60 min, 25° C.
Protocol: The kelatorphan was prepared according to the method described for compound 13 by Fournie-Saluski et al., J. Med. Chem. 28, 1158-1169 (1985). The following procedure was performed at 4° C. Rabbit kidneys were obtained fresh and were perfused with buffer A (containing 5 mM Tris, pH 7.5, 0.25 M sucrose, 3 mM MgCl2 and 1 mM EDTA) to remove the blood. (EDTA=ethylenediaminetetraacetic acid.) The kidneys were minced, homogenized in 5 volumes of ice-cold buffer A with a Brinkmann Polytron homogenizer and filtered through two layers of cheesecloth. The filtrate was centrifuged at 5,000×g for 20 min, the pellet was discarded and the supernatant was centrifuged at 15,000×g for 20 min. The supernatant was retained and then centrifuged at 100,000×g for 90 min. The pellet was resuspended in 50 mM Tris, pH 7.5, and the suspension was centrifuged at 100,000×g for 90 min. The washed pellet was resuspended in 50 mM Tris, pH 7.5, to give a final protein concentration of 4 mg/ml using the protein assay of Bradford, Anal. Biochem. 72, 248-254 (1976). The membrane preparation was assayed for aminopeptidase and alkaline phosphatase activities which are the marker enzymes for the kidney brush border. See Inui et al., Biochim. Biophys. Acta 647, 150-154 (1981). The final membrane preparation was enriched 8-fold in alkaline phosphatase activity, and 11-fold in aminopeptidase activity, compared to the homogenate. Renal brush border membranes (10-20 μg) were preincubated for 15 min at 25° C. in a solution containing the inhibitor and 50 mM Tris, pH 7.5. […] Incubations were for 60 min at 25° C. and were terminated by removing the membranes by filtration using Gelman GA-6 filters. The filtrates were immediately frozen on dry ice and were stable for 1 week when stored at -80° C. Samples containing the peptide degradation products were resolved by C18 reversed phase high pressure liquid chromatography (HPLC). The frozen samples were thawed immediately before injection onto a Vydac C18 column (4.6 mm I.D.×25 cm; 5 micron/300 Å) equilibrated with water containing 0.05% trifluoracetic acid (TFA). Peptide fragments and starting material were separated on a linear gradient of 0-35% acetonitrile also containing 0.05% TFA. Both the gradient and the flow rate (1 ml/min) were maintained by a Waters HPLC system consisting of two Model 510 pumps connected to an Automated Gradient Controller. Column effluent was monitored at 220 nm by a Waters Model 481 spectrophotometer, and the amount of atrial peptide material and peptide fragments were measured via a Hewlett-Packard Model […] integrator. […] Therefore, in those cases where the N-terminal serine was removed, the total amount of biologically active material remaining at the end of the incubation was taken as the % starting material remaining plus % des […] -AP-I or des […] -AP-III (as appropriate), as calculated from the peak areas of the individual peptides on HPLC.

**Q.** For `O=C(O)CNC(=O)C(CS)Cc1ccccc1` (racemic) [thiorphan, N-(DL-2-benzyl-3-mercapto-propionyl)glycine], which “AP-III Plasma concn.” value ([1]; thiorphan 1 mg/kg arterial bolus after 30 min sample, 40 min (10 min after thiorphan)) is on record?
**A.** The value was 23.2 ± 3.1 ng/mL.

**Q.** And the “AP-III Plasma concn.” value ([1]; thiorphan 1 mg/kg arterial bolus after 30 min sample, 50 min (20 min after thiorphan))?
**A.** Its value is 22.2 ± 3.9 ng/mL.

**Q.** And the “AP-III Plasma concn.” value ([1]; thiorphan 1 mg/kg arterial bolus after 30 min sample, 60 min (30 min after thiorphan))?
**A.** The value was 18.7 ± 2.2 ng/mL.

**Q.** And the “AP-III Plasma concn.” value ([1]; thiorphan 1 mg/kg arterial bolus after 30 min sample, 90 min (60 min after thiorphan))?
**A.** Its value is 15.3 ± 3.9 ng/mL.

**Q.** What about the “AP-III Plasma concn.” value ([1]; thiorphan 3 mg/kg arterial bolus after 30 min sample, 40 min (10 min after thiorphan)) of the same compound?
**A.** Its value is 26.7 ± 3.5 ng/mL.

**Q.** And the “AP-III Plasma concn.” value ([1]; thiorphan 3 mg/kg arterial bolus after 30 min sample, 50 min (20 min after thiorphan))?
**A.** Its value is 29.5 ± 4.0 ng/mL.

**Q.** What about the “AP-III Plasma concn.” value ([1]; thiorphan 3 mg/kg arterial bolus after 30 min sample, 60 min (30 min after thiorphan)) of the same compound?
**A.** The value was 28.9 ± 5.6 ng/mL.

**Q.** And the “AP-III Plasma concn.” value ([1]; thiorphan 3 mg/kg arterial bolus after 30 min sample, 90 min (60 min after thiorphan))?
**A.** The value was 21.2 ± 3.9 ng/mL.

**Q.** What about the “AP-III Plasma concn.” value ([1]; thiorphan 10 mg/kg arterial bolus after 30 min sample, 40 min (10 min after thiorphan)) of the same compound?
**A.** The value was 24.7 ± 2.7 ng/mL.

**Q.** And the “AP-III Plasma concn.” value ([1]; thiorphan 10 mg/kg arterial bolus after 30 min sample, 50 min (20 min after thiorphan))?
**A.** The value was 29.2 ± 3.1 ng/mL.

**Q.** What about the “AP-III Plasma concn.” value ([1]; thiorphan 10 mg/kg arterial bolus after 30 min sample, 60 min (30 min after thiorphan)) of the same compound?
**A.** The value was 30.2 ± 4.8 ng/mL.

**Q.** And the “AP-III Plasma concn.” value ([1]; thiorphan 10 mg/kg arterial bolus after 30 min sample, 90 min (60 min after thiorphan))?
**A.** Its value is 25.5 ± 5.5 ng/mL.

**Q.** And the “AP-III Plasma concn.” value ([1]; thiorphan 30 mg/kg arterial bolus after 30 min sample, 40 min (10 min after thiorphan))?
**A.** The value was 22.5 ± 2.7 ng/mL.

**Q.** What about the “AP-III Plasma concn.” value ([1]; thiorphan 30 mg/kg arterial bolus after 30 min sample, 50 min (20 min after thiorphan)) of the same compound?
**A.** Its value is 28.8 ± 5.6 ng/mL.

**Q.** What about the “AP-III Plasma concn.” value ([1]; thiorphan 30 mg/kg arterial bolus after 30 min sample, 60 min (30 min after thiorphan)) of the same compound?
**A.** Its value is 30.7 ± 6.0 ng/mL.

**Q.** And the “AP-III Plasma concn.” value ([1]; thiorphan 30 mg/kg arterial bolus after 30 min sample, 90 min (60 min after thiorphan))?
**A.** The value was 31.3 ± 7.8 ng/mL.

**Q.** And the “Increase of plasma AP-III levels over control levels” value ([1]; later times after thiorphan)?
**A.** Its value is 3 fold.

**Q.** What about the “Increase of plasma AP-III levels over control levels” value ([1]; ten minutes after injecting thiorphan) of the same compound?
**A.** The value was “at least 2 fold”.

**Q.** What about the “Increase of AP-III levels upon intravenous infusion” value ([1]; rats, thiorphan 1-30 mg/kg of body weight) of the same compound?
**A.** The value was “at least two-fold”.

**Q.** What about the “Plasma AP-III concentrations vs control, analysis of variance” value ([1]; thiorphan 1 mg/kg, all but the last time point) of the same compound?
**A.** The value was “statistically different from control levels”.

**Q.** And the “Plasma AP-III concentrations vs control, analysis of variance” value ([1]; thiorphan 3, 10 and 30 mg/kg, all time points after thiorphan)?
**A.** Its value is “statistically different from control levels”.

**Q.** What about the “Peak area as % Initial AP: AP” value ([2]; (c) 40 μM AP-I) of the same compound?
**A.** The value was 27.3%.

**Q.** And the “Peak area as % Initial AP: AP + des Ser^1 -AP” value ([2]; (c) 40 μM AP-I)?
**A.** The value was 87.9%.

**Q.** What about the “Peak area as % Initial AP: des Ser^1 -AP” value ([2]; (c) 40 μM AP-I) of the same compound?
**A.** The value was 60.6%.

**Q.** And the “Peak area as % Initial AP: AP” value ([2]; (c) 40 μM AP-III)?
**A.** The value was 38.1%.

**Q.** And the “Peak area as % Initial AP: AP + des Ser^1 -AP” value ([2]; (c) 40 μM AP-III)?
**A.** The value was 86.1%.

**Q.** What about the “Peak area as % Initial AP: des Ser^1 -AP” value ([2]; (c) 40 μM AP-III) of the same compound?
**A.** Its value is 48.0%.

**Q.** What about the “Peak area as % Initial AP: AP” value ([2]; (c) 40 μM SLRR(Met^8)AP-III) of the same compound?
**A.** Its value is 86.5%.

**Q.** What about the “Peak area as % Initial AP: AP + des Ser^1 -AP” value ([2]; (c) 40 μM SLRR(Met^8)AP-III) of the same compound?
**A.** Its value is 86.5%.

**Q.** What about the “Peak area as % Initial AP: des Ser^1 -AP” value ([2]; (c) 40 μM SLRR(Met^8)AP-III) of the same compound?
**A.** Its value is 0%.
